Nine molecules from patent publication US11077090B2, “Compounds and compositions and uses thereof” (Sunovion Pharmaceuticals Inc., priority 2016, dated 2021) can be followed below.

The first experiment deals with compound-treated mice. The experiment can be described thus: Neuropharmacological assay (SmartCube): behavioral activity signature and minimal effective dose. The note with it: MED = dose having 50% or more total activity. In kind it is in vivo. Summed up:
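Video-recorded behavior is compared algorithmically against a reference-compound database, yielding class probabilities (best dose reported). Compounds given i.p. in NMP/PEG/propylene glycol 15 min pre-test at 3 doses; potency as MED, the dose (mpk, range usually 0.3–30) reaching ≥50% total activity.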
In the case of `Cl.NC1COCCc2ccc3ccccc3c21` (centres unmarked) [Example 32], the “Potency: minimal effective dose (MED)” value is recorded as “C (>10 to ≤30 mpk)”.

As to `Cc1ccc2c(c1)C(N)COCC2.Cl` (centres unmarked) [Example 34], the “Potency: minimal effective dose (MED)” value is on record as “B (>3 to 10 mpk)”.

As for `Cl.NC1COCCc2ccc3ccccc3c21` (centres unmarked) [Example 35], the “Potency: minimal effective dose (MED)” value is listed as “B (>3 to 10 mpk)”.

The same experiment, now with this note: MED = dose having 50% or more total activity, hydrochloride.
For the molecule `Cc1ccc2c(c1)C(N)COCC2.Cl` (centres unmarked) [Example 31, 8-Methyl-1,2,4,5-tetrahydrobenzo[d]oxepin-1-amine hydrochloride], the “Potency: minimal effective dose (MED)” value is “C (>10 to ≤30 mpk)”.

Staying with this experiment, now noted: Mus musculus, ip, MED = dose having 50% or more total activity, read-out: Potency: minimal effective dose (MED).
By minimal effective dose is commonly meant the lowest level tested that produced the effect sought. Turning to `Cc1cccc2c1COCC2N.Cl` (centres unmarked) [Example 27], the minimal effective dose is 3 to 10 mg/kg.

For the molecule `Cl.NC1COCc2cccc(Cl)c21` (centres unmarked) [Example 28], the minimal effective dose was in the range of 3 to 10 mg/kg.

Regarding `CC1(C)OCC(N)c2ccccc21.Cl` (centres unmarked) [Example 29], the minimal effective dose lay within 10 to 30 mg/kg.

On to `Cl.NC1COCCc2ccccc21` (centres unmarked) [Example 30], for which the minimal effective dose was above 30 mg/kg.

Consider `Cl.NC1CCOCc2ccccc21` (centres unmarked) [Example 33, 1,3,4,5-Tetrahydrobenzo[c]oxepin-5-amine hydrochloride], for which the minimal effective dose was in the range of 10 to 30 mg/kg.

The same experiment, now with this note: i.p. 15 min before test, most efficacious dose(s).
As to `Cc1cccc2c1COCC2N.Cl` (centres unmarked) [Example 27], the “AD: ADHD (probability of activity signature)” value (“AD: ADHD” for short) is on record as “+ (LOQ ≤ + <5%)”, the “AG: analgesic (probability of activity signature)” value (“AG: analgesic” below) is on record as “++ (5% ≤ ++ <25%)”, the “AX: anxiolytic (probability of activity signature)” value (“AX: anxiolytic” below) is on record as “++ (5% ≤ ++ <25%)” and the “CE: cognitive enhancer (probability of activity signature)” value (“CE: cognitive enhancer” below) was “++ (5% ≤ ++ <25%)”. In addition, the “DP: anti-depressant (probability of activity signature)” value (“DP: anti-depressant” below) is “++ (5% ≤ ++ <25%)”, the “MS: mood stabilizer (probability of activity signature)” value (“MS: mood stabilizer” for short) is recorded as “++ (5% ≤ ++ <25%)”, the “PS: anti-psychotic (probability of activity signature)” value (shortened to “PS: anti-psychotic”) is “++ (5% ≤ ++ <25%)” and the “SD: sedative hypnotic (probability of activity signature)” value (from here on “SD: sedative hypnotic”) is “+ (LOQ ≤ + <5%)”. For the same molecule, the “UN: uncharacterized CNS activity (probability of activity signature)” value (“UN: uncharacterized CNS activity” below) was “+++ (25% ≤ +++ <50%)”.

For `Cl.NC1COCc2cccc(Cl)c21` (centres unmarked) [Example 28], the “AD: ADHD” value is on record as “+ (LOQ ≤ + <5%)”, the “AG: analgesic” value is “++ (5% ≤ ++ <25%)”, the “AX: anxiolytic” value was “++ (5% ≤ ++ <25%)” and the “CE: cognitive enhancer” value is given as “++ (5% ≤ ++ <25%)”. Also, the “DP: anti-depressant” value was “++ (5% ≤ ++ <25%)”, the “MS: mood stabilizer” value is reported as “+ (LOQ ≤ + <5%)”, the “PS: anti-psychotic” value is recorded as “++ (5% ≤ ++ <25%)” and the “SD: sedative hypnotic” value is on record as “+ (LOQ ≤ + <5%)”. The “UN: uncharacterized CNS activity” value was “+++ (25% ≤ +++ <50%)”.

Consider `CC1(C)OCC(N)c2ccccc21.Cl` (centres unmarked) [Example 29], for which the “AD: ADHD” value is recorded as “+ (LOQ ≤ + <5%)”, the “AG: analgesic” value is on record as “+++ (25% ≤ +++ <50%)”, the “AX: anxiolytic” value is recorded as “++ (5% ≤ ++ <25%)” and the “CE: cognitive enhancer” value was “+ (LOQ ≤ + <5%)”. Besides, the “DP: anti-depressant” value is reported as “++ (5% ≤ ++ <25%)”, the “MS: mood stabilizer” value is recorded as “+ (LOQ ≤ + <5%)”, the “PS: anti-psychotic” value is recorded as “+ (LOQ ≤ + <5%)” and the “SD: sedative hypnotic” value was “+ (LOQ ≤ + <5%)”. Also, the “UN: uncharacterized CNS activity” value is reported as “+ (LOQ ≤ + <5%)”.

Consider `Cl.NC1COCCc2ccccc21` (centres unmarked) [Example 30], for which the “AD: ADHD” value is listed as “+ (LOQ ≤ + <5%)”, the “AG: analgesic” value is “++ (5% ≤ ++ <25%)”, the “AX: anxiolytic” value is given as “+ (LOQ ≤ + <5%)” and the “CE: cognitive enhancer” value is recorded as “+ (LOQ ≤ + <5%)”. The “DP: anti-depressant” value is “+ (LOQ ≤ + <5%)”, the “MS: mood stabilizer” value was “+ (LOQ ≤ + <5%)”, the “PS: anti-psychotic” value was “+ (LOQ ≤ + <5%)” and the “SD: sedative hypnotic” value is on record as “+ (LOQ ≤ + <5%)”. Also, the “UN: uncharacterized CNS activity” value is given as “+ (LOQ ≤ + <5%)”.

In the case of `Cc1ccc2c(c1)C(N)COCC2.Cl` (centres unmarked) [Example 31, 8-Methyl-1,2,4,5-tetrahydrobenzo[d]oxepin-1-amine hydrochloride], the “AD: ADHD” value was “+ (LOQ ≤ + <5%)”, the “AG: analgesic” value is on record as “++ (5% ≤ ++ <25%)”, the “MS: mood stabilizer” value is recorded as “+ (LOQ ≤ + <5%)” and the “UN: uncharacterized CNS activity” value is “+++ (25% ≤ +++ <50%)”.

Take `Cl.NC1COCCc2ccc3ccccc3c21` (centres unmarked) [Example 32]: the “AD: ADHD” value was “+ (LOQ ≤ + <5%)”, the “AG: analgesic” value is listed as “++ (5% ≤ ++ <25%)”, the “AX: anxiolytic” value is “++ (5% ≤ ++ <25%)” and the “CE: cognitive enhancer” value was “+ (LOQ ≤ + <5%)”. For the same molecule, the “DP: anti-depressant” value was “++ (5% ≤ ++ <25%)”, the “MS: mood stabilizer” value is listed as “+ (LOQ ≤ + <5%)”, the “PS: anti-psychotic” value is recorded as “++ (5% ≤ ++ <25%)” and the “SD: sedative hypnotic” value is “++ (5% ≤ ++ <25%)”. The “UN: uncharacterized CNS activity” value is “+ (LOQ ≤ + <5%)”.

On to `Cl.NC1CCOCc2ccccc21` (centres unmarked) [Example 33, 1,3,4,5-Tetrahydrobenzo[c]oxepin-5-amine hydrochloride], for which the “AD: ADHD” value is “+ (LOQ ≤ + <5%)”, the “AG: analgesic” value is given as “++ (5% ≤ ++ <25%)”, the “AX: anxiolytic” value is reported as “++ (5% ≤ ++ <25%)” and the “CE: cognitive enhancer” value was “++ (5% ≤ ++ <25%)”. Moreover, the “DP: anti-depressant” value is “+ (LOQ ≤ + <5%)”, the “MS: mood stabilizer” value was “+ (LOQ ≤ + <5%)”, the “PS: anti-psychotic” value is “++ (5% ≤ ++ <25%)” and the “SD: sedative hypnotic” value was “+ (LOQ ≤ + <5%)”. Further, the “UN: uncharacterized CNS activity” value is recorded as “+++ (25% ≤ +++ <50%)”.

As to `Cc1ccc2c(c1)C(N)COCC2.Cl` (centres unmarked) [Example 34], the “AX: anxiolytic” value is “+++ (25% ≤ +++ <50%)”, the “CE: cognitive enhancer” value is on record as “++ (5% ≤ ++ <25%)”, the “DP: anti-depressant” value is reported as “+ (LOQ ≤ + <5%)” and the “PS: anti-psychotic” value is given as “++ (5% ≤ ++ <25%)”. The “SD: sedative hypnotic” value is reported as “++ (5% ≤ ++ <25%)”.

On to `Cl.NC1COCCc2ccc3ccccc3c21` (centres unmarked) [Example 35], for which the “AD: ADHD” value is “+ (LOQ ≤ + <5%)”, the “AG: analgesic” value is listed as “++ (5% ≤ ++ <25%)”, the “AX: anxiolytic” value is “+++ (25% ≤ +++ <50%)” and the “CE: cognitive enhancer” value is given as “++ (5% ≤ ++ <25%)”. Moreover, the “DP: anti-depressant” value is “++ (5% ≤ ++ <25%)”, the “MS: mood stabilizer” value is given as “+ (LOQ ≤ + <5%)”, the “PS: anti-psychotic” value is “++ (5% ≤ ++ <25%)” and the “SD: sedative hypnotic” value is “+ (LOQ ≤ + <5%)”. For the same molecule, the “UN: uncharacterized CNS activity” value is “+++ (25% ≤ +++ <50%)”.

Still in this experiment, the particulars now being: i.p. 15 min before test, most efficacious dose(s), hydrochloride.
For `Cc1ccc2c(c1)C(N)COCC2.Cl` (centres unmarked) [Example 31, 8-Methyl-1,2,4,5-tetrahydrobenzo[d]oxepin-1-amine hydrochloride], the “AX: anxiolytic” value is reported as “++ (5% ≤ ++ <25%)”, the “CE: cognitive enhancer” value is reported as “+ (LOQ ≤ + <5%)”, the “DP: anti-depressant” value was “++ (5% ≤ ++ <25%)” and the “PS: anti-psychotic” value was “+ (LOQ ≤ + <5%)”. The “SD: sedative hypnotic” value is on record as “+ (LOQ ≤ + <5%)”.
